# Assay results reported in patent US10493091B2, “Method for storing P1, P4-bis(5′-uridyl)teraphosphate crystals” (Yamasa Corporation, priority 2015, dated 2019).
# How the values were obtained:
# [1] = pH measurement of UP4U crystals (crystal pH); type: physicochemical; conditions: 1.0 g dissolved in 20 mL distilled water
# Procedure: The term crystal pH in the present invention refers to the value of pH of crystals measured with 1 g of crystals dissolved in 20 mL of water. The control of the pH of UP4U crystals within a desired range of values is possible, for example, by controlling the pH of an original solution for use in crystallization. To control the pH, it is sufficient to use, as necessary, an arbitrary acid or alkali capable of being used for production of raw materials or the like for pharmaceutical products. An arbitrary one selected from hydrochloric acid, nitric acid, phosphoric acid, and so on can be used as the acid and an arbitrary one selected from sodium hydroxide, sodium carbonate, sodium hydrogen carbonate, and so on can be used as the alkali.
# Control of UP4U Crystals with Different pHs UP4U crystals prepared by a known method were dissolved in deionized water. Various phosphoric acid aqueous solutions or sodium hydroxide aqueous solutions were each added to the solution containing UP4U dissolved therein to prepare solutions having different pHs (hereinafter, referred to as “original solutions”).
# Ethanol was put into each of the original solutions to make the original solution lightly cloudy, followed by addition of a small amount of UP4U crystals and stirring for a dozen hours. After confirmation of crystal precipitation, ethanol was further put into each of the solutions, the solution was stirred, and crystals were then separated from the solution using a centrifuge. The obtained various crystals were dried with a circulation dryer to prepare various UP4U crystals having different pHs.
# (pH Measurement) Water was sufficiently boiled and then cooled in a state where a carbon dioxide absorption tube was connected, thus preparing distilled water. An amount of 1.0 g of each test sample was dissolved in 20 mL of the prepared distilled water. The pH (crystal pH) of this solution was measured.
# [2] = Stability test of packed UP4U crystals, four weeks of storage, HPLC purity; type: physicochemical; conditions: for decrease in HPLC purity: regardless of the crystal pH
# Procedure: (Packing of Test Sample) An amount of approximately 20 mg of each test sample was put into a pouch made of low-density polyethylene and sealed by heat sealing. This pouch was further put into a pouch made of low-density polyethylene and sealed by heat sealing. This pouch was still further put into a pouch made of low-density polyethylene and sealed by heat sealing. This pouch was put into a pouch made of aluminum-metallized film and sealed by heat sealing, thus preparing a sample for stability test. (Stability Test) Packed samples were put into thermostatic baths at 5° C., 25° C., 40° C., and 60° C., respectively, and stored for four weeks. (Analysis) For each sample zero days after the start of the stability test and samples of the same type at four weeks of storage at the different temperatures, the packing by sealing was opened and each of the test samples was dissolved in deionized water. This solution was analyzed by HPLC and, based on the analysis result, evaluated in terms of stability. The conditions of the measurement using HPLC in this analysis were as follows. [table] The evaluation was made by defining the value obtained by subtracting the HPLC purity (%) of crystals zero days after the start of the stability test from the HPLC purity (%) of the crystals at four weeks of storage as a rate of change (%).
structure (smiles),measurement,setting,value
"O=c1ccn([C@@H]2O[C@H](COP(=O)(O)OP(=O)(O)OP(=O)(O)OP(=O)(O)OC[C@H]3O[C@@H](n4ccc(=O)[nH]c4=O)[C@H](O)[C@@H]3O)[C@@H](O)[C@H]2O)c(=O)[nH]1 [UP4U crystals, P^1,P^4-bis(5′-uridyl)tetraphosphate]",Crystal pH,[1]; original liquid pH 2.50,4.60
same,Crystal pH,[1]; original liquid pH 3.00,5.16
same,Crystal pH,[1]; original liquid pH 3.50,5.54
same,Crystal pH,[1]; original liquid pH 4.00,5.64
same,Crystal pH,[1]; original liquid pH 5.50,5.97
same,Crystal pH,[1]; original liquid pH 6.50,6.32
same,Crystal pH,[1]; original liquid pH 7.40,6.66
same,Crystal pH,[1]; original liquid pH 7.80,6.91
same,Crystal pH,[1]; original liquid pH 8.00,7.12
same,Crystal pH,[1]; original liquid pH 8.10,7.43
same,Crystal pH,[1]; original liquid pH 8.20,7.97
same,rate of change in HPLC purity,"[2]; 5° C., four weeks of storage, crystal pH 4.60",0.01%
same,rate of change in HPLC purity,"[2]; 5° C., four weeks of storage, crystal pH 5.16",0.00%
same,rate of change in HPLC purity,"[2]; 5° C., four weeks of storage, crystal pH 5.54",0.00%
same,rate of change in HPLC purity,"[2]; 5° C., four weeks of storage, crystal pH 5.64",0.00%
same,rate of change in HPLC purity,"[2]; 5° C., four weeks of storage, crystal pH 5.97",0.00%
same,rate of change in HPLC purity,"[2]; 5° C., four weeks of storage, crystal pH 6.32",0.00%
same,rate of change in HPLC purity,"[2]; 5° C., four weeks of storage, crystal pH 6.66",−0.01%
same,rate of change in HPLC purity,"[2]; 5° C., four weeks of storage, crystal pH 6.91",0.00%
same,rate of change in HPLC purity,"[2]; 5° C., four weeks of storage, crystal pH 7.12",0.00%
same,rate of change in HPLC purity,"[2]; 5° C., four weeks of storage, crystal pH 7.43",0.01%
same,rate of change in HPLC purity,"[2]; 5° C., four weeks of storage, crystal pH 7.97",0.03%
same,rate of change in HPLC purity,"[2]; 25° C., four weeks of storage, crystal pH 4.60",−0.01%
same,rate of change in HPLC purity,"[2]; 25° C., four weeks of storage, crystal pH 5.16",−0.02%
same,rate of change in HPLC purity,"[2]; 25° C., four weeks of storage, crystal pH 5.54",−0.02%
same,rate of change in HPLC purity,"[2]; 25° C., four weeks of storage, crystal pH 5.64",−0.01%
same,rate of change in HPLC purity,"[2]; 25° C., four weeks of storage, crystal pH 5.97",−0.02%
same,rate of change in HPLC purity,"[2]; 25° C., four weeks of storage, crystal pH 6.32",−0.01%
same,rate of change in HPLC purity,"[2]; 25° C., four weeks of storage, crystal pH 6.66",−0.03%
same,rate of change in HPLC purity,"[2]; 25° C., four weeks of storage, crystal pH 6.91",−0.02%
same,rate of change in HPLC purity,"[2]; 25° C., four weeks of storage, crystal pH 7.12",−0.02%
same,rate of change in HPLC purity,"[2]; 25° C., four weeks of storage, crystal pH 7.43",−0.01%
same,rate of change in HPLC purity,"[2]; 25° C., four weeks of storage, crystal pH 7.97",−0.01%
same,rate of change in HPLC purity,"[2]; 40° C., four weeks of storage, crystal pH 4.60",−0.05%
same,rate of change in HPLC purity,"[2]; 40° C., four weeks of storage, crystal pH 5.16",−0.04%
same,rate of change in HPLC purity,"[2]; 40° C., four weeks of storage, crystal pH 5.54",−0.03%
same,rate of change in HPLC purity,"[2]; 40° C., four weeks of storage, crystal pH 5.64",−0.02%
same,rate of change in HPLC purity,"[2]; 40° C., four weeks of storage, crystal pH 5.97",−0.03%
same,rate of change in HPLC purity,"[2]; 40° C., four weeks of storage, crystal pH 6.32",−0.02%
same,rate of change in HPLC purity,"[2]; 40° C., four weeks of storage, crystal pH 6.66",−0.04%
same,rate of change in HPLC purity,"[2]; 40° C., four weeks of storage, crystal pH 6.91",−0.04%
same,rate of change in HPLC purity,"[2]; 40° C., four weeks of storage, crystal pH 7.12",−0.08%
same,rate of change in HPLC purity,"[2]; 40° C., four weeks of storage, crystal pH 7.43",−0.15%
same,rate of change in HPLC purity,"[2]; 40° C., four weeks of storage, crystal pH 7.97",−0.12%
same,rate of change in HPLC purity,"[2]; 60° C., four weeks of storage, crystal pH 4.60",−0.25%
same,rate of change in HPLC purity,"[2]; 60° C., four weeks of storage, crystal pH 5.16",−0.08%
same,rate of change in HPLC purity,"[2]; 60° C., four weeks of storage, crystal pH 5.54",−0.07%
same,rate of change in HPLC purity,"[2]; 60° C., four weeks of storage, crystal pH 5.64",−0.07%
same,rate of change in HPLC purity,"[2]; 60° C., four weeks of storage, crystal pH 5.97",−0.08%
same,rate of change in HPLC purity,"[2]; 60° C., four weeks of storage, crystal pH 6.32",−0.14%
same,rate of change in HPLC purity,"[2]; 60° C., four weeks of storage, crystal pH 6.66",−0.18%
same,rate of change in HPLC purity,"[2]; 60° C., four weeks of storage, crystal pH 6.91",−0.24%
same,rate of change in HPLC purity,"[2]; 60° C., four weeks of storage, crystal pH 7.12",−0.46%
same,rate of change in HPLC purity,"[2]; 60° C., four weeks of storage, crystal pH 7.43",−0.50%
same,rate of change in HPLC purity,"[2]; 60° C., four weeks of storage, crystal pH 7.97",−0.87%
same,rate of change in HPLC purity,"[2]; four weeks, one of: (1) 0° C. or more and less than 25° C., (2) 25° C. or more and less than 40° C. and crystal pH 4.5 to 8.0, (3) 40° C. or more and less than 60° C. and crystal pH 5.0 to 6.4",≤ 0.15%
same,rate of change in HPLC purity,"[2]; four weeks, one of: (4) 0° C. or more and less than 25° C., (5) 25° C. or more and less than 40° C. and crystal pH 4.5 to 7.4, (6) 40° C. or more and less than 60° C. and crystal pH 5.2 to 6.2",≤ 0.10%
same,rate of change in HPLC purity,"[2]; four weeks, one of: (7) 0° C. or more and less than 25° C., (8) 25° C. or more and less than 40° C. and crystal pH 4.6 to 6.6",≤ 0.05%
same,decrease in HPLC purity,[2]; storage temperature 0° C. or more and less than 25° C.,substantially no decrease
same,decrease in HPLC purity,[2]; storage temperature of 60° C. or more,may significantly decrease
